Holding throughout (experiment): NCI tumour cell line growth inhibition, 48 h
For test [1], the system named is RPMI-8226 leukemia.
The subject of test [2] is HOP-92 NSCLC.
The subject of test [3] is MOLT-4 leukemia.
The test system of test [4] is NCI-H226 lung.
In test [5] the test system is SF-295 CNS.
The subject of test [6] is SF-268 CNS.
For test [7], the system named is NCI-H460 lung.
In test [8] the test system is SF-539 CNS.
Test [9] relates to M14 melanoma.
Test [10] has as its system SK-OV-3 ovarian.

“And” between values parts separate entries of the source, which are not always exact repeats. Equal entries are not always repeated.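 These data come from cells grown in 96-well plates and exposed to compound for 48 hours at five concentrations. GI50 = concentration required for 50% inhibition of growth. At the TGI there is no net growth.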 Some results are limits rather than exact numbers.

The values below come from PubChem BioAssay (NCI).

Take `OCCNCCNc1c2ccccc2nc2oc3ccccc3c12`: the GI50 is 4760 nM in [1]; 6.15 µM in test [2]; 4.78 µM in test [3]; 20.5 µM in [4]; 6020 nM in [5]; 7.33 µM in test [6]. The GI50 in [7] was 4.44 µM; in test [8], 8.04 µM; in test [9], 12 µM; in test [10] it was 13.1 µM. Also, the TGI in test [1] is 21.6 µM; in test [2], 25.7 µM; in [3], above 100 µM; in test [4], 62 µM; in test [5], 29.6 µM; in test [6], 28.3 µM. The TGI in test [7] was determined as 17.5 µM; in test [8] it was 21 µM; in test [9], 24.5 µM; in test [10], 40.3 µM.

Take `Clc1ccc(SCCCCCCCCCCSc2ccc(Cl)cc2)cc1`: the TGI is above 100 µM in test [1]; above 100 µM in test [2]; above 100 µM in [3]; above 100 µM in test [4]; above 71.4 µM in test [5]; above 100 µM in [6]. For the same compound, the TGI in test [7] is above 78.7 µM; in test [8], above 100 µM; in [9], above 100 µM; in test [10], above 100 µM.

For the compound `CN(C)c1ccc(O)c2c1C[C@H]1C[C@H]3[C@H](N(C)C)C(=O)C(C(N)=O)=C(O)[C@@]3(O)C(=O)C1=C2O`, the GI50 in [1] is 4280 nM; in test [2], 3.6 µM; in test [3], 10.7 µM; in test [4], 8.58 µM; in [5], 2460 nM; in [6], 5.46 µM. The GI50 in test [7] was 3.45 µM; in [8], 3.88 µM; in test [9], 5.09 µM; in test [10], 3.92 µM. The TGI in test [1] is 31.1 µM; in [2], 26.9 µM; in [3] it was 40.6 µM; in test [4], 84.5 µM; in test [5], 7.99 µM; in [6], above 100 µM. The TGI was 20.7 µM in [7], 15.5 µM in [8], 65.9 µM in [9] and above 100 µM in test [10].

In the case of `O=C(CN1C(=O)c2ccccc2C1=O)C(O)CN1C(=O)c2ccccc2C1=O` (configuration not stated), the TGI in [1] was above 100 µM; in [2], above 100 µM; in test [3], above 100 µM; in test [4] it was above 100 µM; in [5] it was 99.8 µM; in test [6], 88.1 µM. In addition, the TGI in test [7], in [8], in test [9] and in [10] was above 100 µM each time.

In the case of `N#CC1=C(N)Oc2c(sc3c(F)cccc23)C1c1ccc(F)cc1` (configuration not stated), the GI50 was 1050 nM in [1]; 2.36 µM in test [2]; 0.521 µM in [3]; 1.71 µM in test [4]; 364 nM in test [5]; 1.13 µM in test [6]. Also, the GI50 in test [7] is 0.415 µM; in test [8], 0.447 µM; in [9], 0.41 µM; in test [10], 1.61 µM. In addition, the TGI in test [1] was 14.7 µM; in [2], 13.4 µM; in test [3] it was 13.3 µM; in test [4], 15.8 µM; in test [5], 6.28 µM; in [6], 15.3 µM. The TGI in test [7] was 7.77 µM; in test [8], 2.67 µM; in [9], 6.41 µM; in test [10], 19.7 µM.

As for `CCCCCN(CCCCC)CC(O)c1cc2c(c3ccccc13)CCCC2` (configuration not stated), the GI50 in [1] is 2410 nM and 1500 nM; in test [2] it was 2.5 µM and 3.53 µM; in test [3] it was 2.95 µM and 26.4 µM; in test [4], 5.64 µM and 11 µM; in test [5], 2380 nM and 6820 nM; in test [6], 11.3 µM and 16.5 µM. The GI50 in [7] is 3.4 µM and 4.36 µM; in test [8], 4.88 µM and 10.9 µM; in test [9], 4.76 µM and 10.4 µM; in test [10], 12.4 µM and 17 µM. In addition, the TGI in test [1] was 7.39 µM and 9.18 µM; in test [2], 8.94 µM and 17.1 µM; in [3], 13 µM and > 100 µM; in test [4], 20.3 µM and 29.2 µM; in test [5], 11.4 µM and 29.8 µM; in test [6], 23.9 µM and 36.8 µM. In addition, the TGI in [7] is 13.8 µM and 16.1 µM; in test [8] it was 16.9 µM and 23.6 µM; in [9] it was 16.3 µM and 23.8 µM; in test [10], 24.9 µM and 34.8 µM.

On to `S=C(Nc1ccccc1)N(Cc1ccccc1)c1ccccc1`, for which the TGI in test [1], in [2], in [3], in test [4], in test [5] and in test [6] was above 100 µM throughout. Besides, the TGI is above 100 µM in test [7], 66 µM in [8], above 100 µM in [9] and above 100 µM in test [10].

`CC(C)C[C@@H]1NC(=O)[C@@H]2CCCN2C(=O)[C@@H]2CCCN2C(=O)[C@H](CC(C)C)NC(=O)[C@H](CO)NC(=O)[C@H](CCCCN)NC(=O)[C@H]([C@H](C)O)NC(=O)[C@@H]2CCCC[C@@H](NC1=O)C(=O)N[C@@H](Cc1ccccc1)C(=O)N1CCC[C@H]1C(=O)N[C@@H](CC(=O)O)C(=O)NCC(=O)N[C@@H](CCCN=C(N)N)C(=O)N2`: the GI50 is above 50000 nM in [1]; above 50 µM in test [2]; above 50 µM in test [3]; above 50 µM in test [4]; above 50000 nM in [5]; above 50 µM in test [6]. Also, the GI50 in test [7], in [8] and in test [10] was above 50 µM each time. For the same compound, the TGI in test [1], in test [2], in test [3], in test [4], in test [5] and in [6] was above 50 µM each time. Further, the TGI in [7], in test [8] and in test [10] was above 50 µM each time.

Consider `O=C(NCP(=O)(O)O)c1cccnc1`, for which the TGI in [1], in test [2], in test [3], in test [4], in [5] and in [7] was above 100 µM in each case. The TGI in test [8], in [9] and in test [10] was above 100 µM throughout.
